# Test results as given in patent US20130303509A1, “NAMPT INHIBITORS” (AbbVie Inc., priority 2012, published 2013).
# System: PC3 cells
# Assay: NAMPT Cell Proliferation Assay
# Type: cell-based
# Conditions: Homo sapiens, PC-3, 120 h, 5 days incubation, cell viability by Cell Titer Glo
# Summary of the method: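 Five-day CellTiter-Glo viability readout in PC3 cells grown in RPMI/10% heat-inactivated FBS. Compounds added after overnight attachment as a 10-fold dilution series, […]. Percent inhibition fitted to sigmoidal dose-response to derive IC50.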
row,IC50,SMILES
1,70.1 nM,"CC[C@H](C)C(=O)N1CC(Oc2ccc(NC(=O)C3CN(c4ccnnc4)C3)cc2)C1 [Example 265, N-[4-({1-[(2S)-2-methylbutanoyl]azetidin-3-yl}oxy)phenyl]-1-(pyridazin-4-yl)azetidine-3-carboxamide]"
2,223 nM,"O=C(Nc1ccc(O[C@@H]2CCN(C(=O)C3CC3)C2)cc1)C1CN(c2ccnnc2)C1 [Example 460, N-(4-{[(3R)-1-(cyclopropylcarbonyl)pyrrolidin-3-yl]oxy}phenyl)-1-(pyridazin-4-yl)azetidine-3-carboxamide]"
3,9.02 nM,"CCCC(=O)N1CCC(c2ccc(NC(=O)[C@H]3CCN(c4cccnn4)C3)cc2)CC1 [Example 681, (3S)-N-[4-(1-butanoylpiperidin-4-yl)phenyl]-1-(pyridazin-3-yl)pyrrolidine-3-carboxamide]"
4,604 nM,"Cc1ncccc1N1CC(C(=O)Nc2ccc(C3CCN(C(=O)CCN4CCOCC4)CC3)cc2)C1 [Example 184, 1-(2-methylpyridin-3-yl)-N-(4-{1-[3-(morpholin-4-yl)propanoyl]piperidin-4-yl}phenyl)azetidine-3-carboxamide]"
5,5.07 nM,"O=C(Nc1ccc(OC2CCN(C(=O)CN3CCOCC3)CC2)cc1)C1CN(c2cccnc2)C1 [Example 60, N-(4-{[1-(morpholin-4-ylacetyl)piperidin-4-yl]oxy}phenyl)-1-(pyridin-3-yl)azetidine-3-carboxamide]"
6,1.28 nM,"CCC(C)(C)C(=O)N1CCC(c2ccc(NC(=O)C3CN(c4cccnn4)C3)cc2)CC1 [Example 325, N-{4-[1-(2,2-dimethylbutanoyl)piperidin-4-yl]phenyl}-1-(pyridazin-3-yl)azetidine-3-carboxamide]"
7,10 nM,"O=C(Nc1ccc(O[C@@H]2CCN(C(=O)C3CCC(F)(F)CC3)C2)cc1)[C@H]1CCN(c2cccnn2)C1 [Example 781, (3S)-N-[4-({(3R)-1-[(4,4-difluorocyclohexyl)carbonyl]pyrrolidin-3-yl}oxy)phenyl]-1-(pyridazin-3-yl)pyrrolidine-3-carboxamide]"
8,41.1 nM,"CC(C)(C)OC(=O)N1CCC(c2ccc(C(=O)NC3CN(c4cccnn4)C3)s2)CC1 [Example 808, tert-butyl 4-(5-{[1-(pyridazin-3-yl)azetidin-3-yl]carbamoyl}thiophen-2-yl)piperidine-1-carboxylate]"
9,0.76 nM,"O=C(Nc1ccc(C2CCN(C(=O)CCC(F)(F)F)CC2)cc1)C1CN(c2cccnc2)C1 [Example 112, 1-(pyridin-3-yl)-N-{4-[1-(4,4,4-trifluorobutanoyl)piperidin-4-yl]phenyl}azetidine-3-carboxamide]"
10,64.4 nM,"Cc1ccc(C(=O)N2CC[C@@H](Oc3ccc(NC(=O)C4CN(c5ccnnc5)C4)cc3)C2)s1 [Example 458, N-[4-({(3R)-1-[(5-methylthiophen-2-yl)carbonyl]pyrrolidin-3-yl}oxy)phenyl]-1-(pyridazin-4-yl)azetidine-3-carboxamide]"
11,30 nM,"CC(=O)N1CCC(c2ccc(NC(=O)[C@H]3CCN(c4cccnn4)C3)cc2)CC1 [Example 691, (3S)-N-[4-(1-acetylpiperidin-4-yl)phenyl]-1-(pyridazin-3-yl)pyrrolidine-3-carboxamide]"
12,> 10000 nM,"Cc1ncccc1N1CC[C@H](C(=O)Nc2ccc(C3CCN(C(=O)CCC(F)(F)F)CC3)cc2)C1 [Example 745, (3S)-1-(2-methylpyridin-3-yl)-N-{4-[1-(4,4,4-trifluorobutanoyl)piperidin-4-yl]phenyl}pyrrolidine-3-carboxamide]"
13,181 nM,"Cc1cncc(N2CC(C(=O)Nc3ccc(C4CCN(C(=O)c5ccccc5)CC4)cc3)C2)c1 [Example 741, N-[4-(1-benzoylpiperidin-4-yl)phenyl]-1-(5-methylpyridin-3-yl)azetidine-3-carboxamide]"
14,84.8 nM,"O=C(Nc1ccc(S(=O)(=O)C2CCN(C(=O)c3cc(F)ccc3F)CC2)cc1)C1CN(c2cccnn2)C1 [Example 576, N-(4-{[1-(2,5-difluorobenzoyl)piperidin-4-yl]sulfonyl}phenyl)-1-(pyridazin-3-yl)azetidine-3-carboxamide]"
15,5.73 nM,"O=C(Nc1ccc(O[C@@H]2CCN(C(=O)C3CCC(F)(F)CC3)C2)cc1)C1CN(c2cccnn2)C1 [Example 524, N-[4-({(3R)-1-[(4,4-difluorocyclohexyl)carbonyl]pyrrolidin-3-yl}oxy)phenyl]-1-(pyridazin-3-yl)azetidine-3-carboxamide]"
16,70.6 nM,"O=C(Nc1ccc(O[C@H]2CCN(C(=O)c3ccccc3)C2)cc1)[C@H]1CCN(c2cccnn2)C1 [Example 824, (3S)—N-(4-{[(3S)-1-benzoylpyrrolidin-3-yl]oxy}phenyl)-1-(pyridazin-3-yl)pyrrolidine-3-carboxamide]"
17,4.36 nM,"CC(C)C(=O)N1CCC(c2ccc(NC(=O)C3CN(c4cccnn4)C3)c(F)c2)CC1 [Example 858, N-{2-fluoro-4-[1-(2-methylpropanoyl)piperidin-4-yl]phenyl}-1-(pyridazin-3-yl)azetidine-3-carboxamide]"

row,IC50,SMILES
1,8.86 nM,"Cc1ccc(C(=O)N2CCC(Oc3ccc(NC(=O)C4CN(c5cccnn5)C4)cc3)CC2)s1 [Example 219, N-[4-({1-[(5-methylthiophen-2-yl)carbonyl]piperidin-4-yl}oxy)phenyl]-1-(pyridazin-3-yl)azetidine-3-carboxamide]"
2,5.95 nM,"O=C(Nc1ccc(C2CCN(C(=O)Cc3cc(F)ccc3F)CC2)cc1)C1CN(c2cccnn2)C1 [Example 373, N-(4-{1-[(2,5-difluorophenyl)acetyl]piperidin-4-yl}phenyl)-1-(pyridazin-3-yl)azetidine-3-carboxamide]"
3,2000 nM,"Cc1ccc(N2CC[C@H](C(=O)Nc3ccc(OC4CCN(C(=O)C5CCCCC5)CC4)cc3)C2)nn1 [Example 839, (3S)—N-(4-{[1-(cyclohexylcarbonyl)piperidin-4-yl]oxy}-phenyl)-1-(6-methylpyridazin-3-yl)pyrrolidine-3-carboxamide]"
4,8.56 nM,"O=C(Nc1ccc(C2CCN(C(=O)c3ccccc3F)CC2)cc1)C1CN(c2ccc(F)nn2)C1 [Example 819, N-{4-[1-(2-fluorobenzoyl)piperidin-4-yl]phenyl}-1-(6-fluoropyridazin-3-yl)azetidine-3-carboxamide]"
5,6.28 nM,"O=C(Nc1ccc(OC2CCN(C(=O)C3CCCC3)CC2)cc1)C1CN(c2cccnc2)C1 [Example 52, N-(4-{[1-(cyclopentylcarbonyl)piperidin-4-yl]oxy}phenyl)-1-(pyridin-3-yl)azetidine-3-carboxamide]"
6,169 nM,"CC(C)(O)C(=O)N1CCC(Oc2ccc(C(=O)NC3CN(c4cccnc4)C3)cc2)CC1 [Example 24, 4-{[1-(2-hydroxy-2-methylpropanoyl)piperidin-4-yl]oxy}-N-[1-(pyridin-3-yl)azetidin-3-yl]benzamide]"
7,86.8 nM,"CC(C)Cn1cc(-c2ccc(C(=O)NC3CN(c4cccnn4)C3)s2)cn1 [Example 315, 5-[1-(2-methylpropyl)-1H-pyrazol-4-yl]-N-[1-(pyridazin-3-yl)azetidin-3-yl]thiophene-2-carboxamide]"
8,6.17 nM,"O=C(Nc1ccc(C2CCN(C(=O)CN3CCCC3)CC2)cc1)C1CN(c2cccnc2)C1 [Example 105, 1-(pyridin-3-yl)-N-{4-[1-(pyrrolidin-1-ylacetyl)piperidin-4-yl]phenyl}azetidine-3-carboxamide]"
9,7.64 nM,"O=C(Nc1ccc(O[C@@H]2CCN(C(=O)c3cccc(F)c3)C2)cc1)[C@H]1CCN(c2cccnn2)C1 [Example 776, (3S)-N-(4-{[(3R)-1-(3-fluorobenzoyl)pyrrolidin-3-yl]oxy}phenyl)-1-(pyridazin-3-yl)pyrrolidine-3-carboxamide]"
10,73.1 nM,"O=C(Nc1ccc(OC2CCN(C(=O)Cc3ccc(F)cc3F)CC2)cc1)C1CN(c2ccnnc2)C1 [Example 277, N-[4-({1-[(2,4-difluorophenyl)acetyl]piperidin-4-yl}oxy)phenyl]-1-(pyridazin-4-yl)azetidine-3-carboxamide]"
11,66.6 nM,"O=C(Nc1ccc(OC2CCN(C(=O)c3ccc(F)cc3F)CC2)cc1)C1CN(c2ccnnc2)C1 [Example 284, N-(4-{[1-(2,4-difluorobenzoyl)piperidin-4-yl]oxy}phenyl)-1-(pyridazin-4-yl)azetidine-3-carboxamide]"
12,9.06 nM,"O=C(Nc1ccc(OC2CCN(C(=O)c3ccccn3)CC2)cc1)C1CN(c2cccnn2)C1 [Example 242, 1-(pyridazin-3-yl)-N-(4-{[1-(pyridin-2-ylcarbonyl)piperidin-4-yl]oxy}phenyl)azetidine-3-carboxamide]"
13,25.5 nM,"O=C(Nc1ccc(OC2CCN(C(=O)c3ccccc3)CC2)cc1)[C@H]1CCN(c2cccnn2)C1 [Example 799, (3S)-N-{4-[(1-benzoylpiperidin-4-yl)oxy]phenyl}-1-(pyridazin-3-yl)pyrrolidine-3-carboxamide]"
14,12.4 nM,"O=C(Nc1ccc(OC2CCN(C(=O)c3ccc(OC(F)(F)F)cc3)CC2)cc1)C1CN(c2cccnn2)C1 [Example 235, 1-(pyridazin-3-yl)-N-[4-({1-[4-(trifluoromethoxy)benzoyl]piperidin-4-yl}oxy)phenyl]azetidine-3-carboxamide]"
15,5.81 nM,"CC1(C(=O)N2CCC(Oc3ccc(NC(=O)C4CN(c5cccnc5)C4)cc3)CC2)CC1 [Example 66, N-[4-({1-[(1-methylcyclopropyl)carbonyl]piperidin-4-yl}oxy)phenyl]-1-(pyridin-3-yl)azetidine-3-carboxamide]"
16,4.15 nM,"COCCn1nc(C2CC2)cc1-c1ccc(NC(=O)C2CN(c3cccnn3)C2)cc1 [Example 807, N-{4-[3-cyclopropyl-1-(2-methoxyethyl)-1H-pyrazol-5-yl]phenyl}-1-(pyridazin-3-yl)azetidine-3-carboxamide]"
17,2.77 nM,"Cc1cc(C)cc(C(=O)N2CCC(c3ccc(NC(=O)C4CN(c5cccnn5)C4)cc3)CC2)c1 [Example 361, N-{4-[1-(3,5-dimethylbenzoyl)piperidin-4-yl]phenyl}-1-(pyridazin-3-yl)azetidine-3-carboxamide]"
